Reference: patent publication EP4745135A1 (Gluetacs Therapeutics (Shanghai) Co., Ltd., priority 2023, dated 2025)
pIC50: −log10 of the molar value.

Legend:
[1] = biological target: T1, CK1α (Homo sapiens, UniProt P48729+Q96SW2); test: Western blot, degradation of substrate protein in hPBMCs; format: cell-based
T1 construct: effects of the compounds of the present disclosure on the expression of target proteins in cells; endogenous in cells; host or cells: human PBMCs (Milecell Biotechnologies)

[2] = biological target: T2, IKZF1 (Homo sapiens, UniProt Q13422+Q96SW2); test: as above; format: cell-based
T2 construct: effects of the compounds of the present disclosure on the expression of target proteins in cells; endogenous in cells; host or cells: human PBMCs (Milecell Biotechnologies)

[3] = biological target: T3, IKZF2 (Homo sapiens, UniProt Q96SW2+Q9UKS7); test: as above; format: cell-based
T3 construct: effects of the compounds of the present disclosure on the expression of target proteins in cells; endogenous in cells; host or cells: human PBMCs (Milecell Biotechnologies)

[4] = biological target: T4, IKZF3 (Homo sapiens, UniProt Q96SW2+Q9UKT9); test: as above; format: cell-based
T4 construct: effects of the compounds of the present disclosure on the expression of target proteins in cells; endogenous in cells; host or cells: human PBMCs (Milecell Biotechnologies)

[5] = biological target: T5, WEE1 (Homo sapiens, UniProt P30291+Q96SW2); test: as above; format: cell-based
T5 construct: effects of the compounds of the present disclosure on the expression of target proteins in cells; endogenous in cells; host or cells: human PBMCs (Milecell Biotechnologies)

[6] = tested on: GSPT1; test: as above; format: cell-based, Human
[7] = biological target: T6, human Cereblon WT GST-tagged protein (Homo sapiens, UniProt Q96SW2); test: CRBN-binding affinity, HTRF (CEREBLON BINDING kit); conditions: for pIC50: CRBN binding, HTRF, 3 hours at room temperature, read-out: HTRF IC50; for inhibition at 0.5 µM: read-out: Inhibition Rate at 0.5 µM (%); for inhibition at 2 µM: read-out: Inhibition Rate at 2 µM (%)
T6 construct: purchased CISBIO 64BDCRBNPEH

[8] = tested on: Human multiple myeloma cell (MM.1S); test: Tumor cell proliferation inhibition (CellTiter-Meiluncell luminescent cell viability assay); conditions: for IC50 / inhibition at 0.5 µM / inhibition at 0.01 µM: Homo sapiens, MM1.S, 96 h; for IC50: read-out: Inhibitory activity (IC50, nM) on tumor cell proliferation, MM.1S; for inhibition at 0.5 µM: read-out: Inhibition Rate at 500 nM (%); for inhibition at 0.01 µM: read-out: Inhibition Rate at 10 nM (%)
[9] = Western blot, 24 hours of compound treatment, compounds tested at 50 nM and 500 nM (concentration for the table not stated)
[10] = 24 hours treatment, compounds at 50 nM and 500 nM (concentration behind the class not stated)

T6 sequence (Q96SW2 whole entry): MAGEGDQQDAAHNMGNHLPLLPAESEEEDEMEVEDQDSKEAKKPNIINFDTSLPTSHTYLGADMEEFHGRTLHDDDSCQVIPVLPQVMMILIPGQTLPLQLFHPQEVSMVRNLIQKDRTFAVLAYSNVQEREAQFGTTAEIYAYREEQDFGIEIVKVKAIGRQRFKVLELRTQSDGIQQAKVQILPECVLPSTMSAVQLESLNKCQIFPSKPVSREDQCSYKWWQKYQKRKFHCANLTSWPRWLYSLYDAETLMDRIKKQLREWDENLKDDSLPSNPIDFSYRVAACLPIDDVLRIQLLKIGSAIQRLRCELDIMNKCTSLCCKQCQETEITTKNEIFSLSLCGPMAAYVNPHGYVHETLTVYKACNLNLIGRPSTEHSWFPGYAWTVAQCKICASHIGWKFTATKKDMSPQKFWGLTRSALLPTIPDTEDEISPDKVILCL
T4 sequence (Q9UKT9 whole entry): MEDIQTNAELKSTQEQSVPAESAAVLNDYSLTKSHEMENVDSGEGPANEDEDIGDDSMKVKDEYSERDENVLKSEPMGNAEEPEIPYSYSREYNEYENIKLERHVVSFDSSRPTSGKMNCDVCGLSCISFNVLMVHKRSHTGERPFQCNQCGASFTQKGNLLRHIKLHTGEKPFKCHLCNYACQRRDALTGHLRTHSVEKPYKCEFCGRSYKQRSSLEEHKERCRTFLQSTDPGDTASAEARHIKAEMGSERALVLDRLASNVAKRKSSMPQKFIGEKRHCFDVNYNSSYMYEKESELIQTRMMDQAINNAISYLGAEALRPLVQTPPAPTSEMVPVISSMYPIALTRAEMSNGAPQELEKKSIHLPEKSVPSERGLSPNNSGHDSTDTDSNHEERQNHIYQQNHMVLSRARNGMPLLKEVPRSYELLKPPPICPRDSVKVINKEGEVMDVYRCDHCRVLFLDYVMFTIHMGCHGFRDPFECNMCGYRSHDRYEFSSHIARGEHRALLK
T4 sequence (Q96SW2 whole entry): as the sequence (Q96SW2 whole entry) above
T4 sequence (Q16531 whole entry partner): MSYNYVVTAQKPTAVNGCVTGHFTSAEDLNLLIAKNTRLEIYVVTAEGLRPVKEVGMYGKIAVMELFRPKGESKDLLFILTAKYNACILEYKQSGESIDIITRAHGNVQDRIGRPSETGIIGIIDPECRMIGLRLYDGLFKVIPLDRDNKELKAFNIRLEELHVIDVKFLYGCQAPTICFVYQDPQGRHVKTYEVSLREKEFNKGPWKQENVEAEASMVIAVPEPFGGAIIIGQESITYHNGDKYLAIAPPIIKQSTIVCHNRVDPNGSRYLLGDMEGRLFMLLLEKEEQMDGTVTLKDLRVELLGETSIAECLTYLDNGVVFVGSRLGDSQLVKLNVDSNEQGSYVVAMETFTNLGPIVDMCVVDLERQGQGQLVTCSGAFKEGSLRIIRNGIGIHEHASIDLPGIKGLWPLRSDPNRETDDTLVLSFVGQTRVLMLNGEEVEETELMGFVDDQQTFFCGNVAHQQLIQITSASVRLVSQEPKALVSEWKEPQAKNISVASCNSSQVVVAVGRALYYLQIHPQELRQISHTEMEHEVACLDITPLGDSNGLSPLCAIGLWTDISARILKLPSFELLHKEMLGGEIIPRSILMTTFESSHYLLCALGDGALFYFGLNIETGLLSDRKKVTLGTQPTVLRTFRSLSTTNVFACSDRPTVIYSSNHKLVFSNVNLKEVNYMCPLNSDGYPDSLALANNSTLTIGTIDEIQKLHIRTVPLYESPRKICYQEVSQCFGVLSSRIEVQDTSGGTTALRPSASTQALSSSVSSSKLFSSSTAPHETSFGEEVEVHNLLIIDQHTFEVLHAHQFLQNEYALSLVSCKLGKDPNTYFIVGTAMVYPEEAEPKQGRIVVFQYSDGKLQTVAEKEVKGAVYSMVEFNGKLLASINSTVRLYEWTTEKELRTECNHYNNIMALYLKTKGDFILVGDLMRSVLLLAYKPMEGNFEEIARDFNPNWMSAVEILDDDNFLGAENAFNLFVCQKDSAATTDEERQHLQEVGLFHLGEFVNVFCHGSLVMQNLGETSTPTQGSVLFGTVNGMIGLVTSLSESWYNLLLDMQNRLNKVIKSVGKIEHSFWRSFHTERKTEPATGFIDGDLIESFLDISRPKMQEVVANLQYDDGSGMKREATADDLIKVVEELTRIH
T2 sequence (Q13422 whole entry): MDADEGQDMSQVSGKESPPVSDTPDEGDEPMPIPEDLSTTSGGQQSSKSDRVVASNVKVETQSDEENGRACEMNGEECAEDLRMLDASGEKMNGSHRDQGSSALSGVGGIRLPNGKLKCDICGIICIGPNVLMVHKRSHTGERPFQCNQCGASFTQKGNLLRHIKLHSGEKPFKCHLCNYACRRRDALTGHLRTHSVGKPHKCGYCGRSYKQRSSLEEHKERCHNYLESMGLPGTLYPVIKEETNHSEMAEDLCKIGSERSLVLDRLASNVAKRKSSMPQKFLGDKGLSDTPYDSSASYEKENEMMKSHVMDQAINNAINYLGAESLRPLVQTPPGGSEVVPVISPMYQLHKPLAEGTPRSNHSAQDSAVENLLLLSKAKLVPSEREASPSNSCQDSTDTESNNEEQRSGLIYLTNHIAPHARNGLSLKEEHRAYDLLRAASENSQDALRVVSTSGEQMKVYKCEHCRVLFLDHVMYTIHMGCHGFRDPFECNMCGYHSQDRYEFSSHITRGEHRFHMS
T2 sequence (Q96SW2 whole entry): as the sequence (Q96SW2 whole entry) above
T2 sequence (Q16531 whole entry partner): as the sequence (Q16531 whole entry partner) above
T5 sequence (P30291 whole entry): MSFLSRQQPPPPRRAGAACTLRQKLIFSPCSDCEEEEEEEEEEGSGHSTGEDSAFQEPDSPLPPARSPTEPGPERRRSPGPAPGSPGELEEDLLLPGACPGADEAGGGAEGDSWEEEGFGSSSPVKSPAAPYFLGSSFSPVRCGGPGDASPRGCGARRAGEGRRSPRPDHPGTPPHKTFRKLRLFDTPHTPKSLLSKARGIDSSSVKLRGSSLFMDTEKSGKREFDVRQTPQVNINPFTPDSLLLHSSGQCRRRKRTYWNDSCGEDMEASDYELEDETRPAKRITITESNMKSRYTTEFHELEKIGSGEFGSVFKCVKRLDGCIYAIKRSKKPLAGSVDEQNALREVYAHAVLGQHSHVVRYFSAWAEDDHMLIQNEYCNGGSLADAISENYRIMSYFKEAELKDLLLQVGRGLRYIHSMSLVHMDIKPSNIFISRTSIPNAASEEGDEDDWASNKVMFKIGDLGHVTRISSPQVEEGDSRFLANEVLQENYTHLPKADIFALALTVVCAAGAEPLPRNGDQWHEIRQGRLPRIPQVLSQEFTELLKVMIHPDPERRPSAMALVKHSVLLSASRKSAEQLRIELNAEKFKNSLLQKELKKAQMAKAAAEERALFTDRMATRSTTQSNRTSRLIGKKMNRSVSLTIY
T5 sequence (Q96SW2 whole entry): as the sequence (Q96SW2 whole entry) above
T5 sequence (Q16531 whole entry partner): as the sequence (Q16531 whole entry partner) above
T3 sequence (Q9UKS7 whole entry): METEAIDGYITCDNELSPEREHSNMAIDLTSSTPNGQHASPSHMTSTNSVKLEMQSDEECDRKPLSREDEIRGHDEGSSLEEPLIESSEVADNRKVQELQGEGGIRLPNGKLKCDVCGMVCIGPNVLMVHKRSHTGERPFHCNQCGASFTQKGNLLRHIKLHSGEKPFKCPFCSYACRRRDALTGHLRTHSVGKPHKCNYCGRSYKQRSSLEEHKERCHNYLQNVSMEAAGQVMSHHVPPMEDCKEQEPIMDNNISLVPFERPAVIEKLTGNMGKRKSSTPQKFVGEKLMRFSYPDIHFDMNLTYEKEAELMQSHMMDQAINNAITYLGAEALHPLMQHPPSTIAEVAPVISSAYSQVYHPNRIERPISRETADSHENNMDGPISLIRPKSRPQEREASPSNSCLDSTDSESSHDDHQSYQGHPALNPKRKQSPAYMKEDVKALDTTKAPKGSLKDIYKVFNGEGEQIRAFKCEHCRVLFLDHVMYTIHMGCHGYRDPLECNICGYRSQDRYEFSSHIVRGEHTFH
T3 sequence (Q96SW2 whole entry): as the sequence (Q96SW2 whole entry) above
T3 sequence (Q16531 whole entry partner): as the sequence (Q16531 whole entry partner) above
T1 sequence (P48729 whole entry): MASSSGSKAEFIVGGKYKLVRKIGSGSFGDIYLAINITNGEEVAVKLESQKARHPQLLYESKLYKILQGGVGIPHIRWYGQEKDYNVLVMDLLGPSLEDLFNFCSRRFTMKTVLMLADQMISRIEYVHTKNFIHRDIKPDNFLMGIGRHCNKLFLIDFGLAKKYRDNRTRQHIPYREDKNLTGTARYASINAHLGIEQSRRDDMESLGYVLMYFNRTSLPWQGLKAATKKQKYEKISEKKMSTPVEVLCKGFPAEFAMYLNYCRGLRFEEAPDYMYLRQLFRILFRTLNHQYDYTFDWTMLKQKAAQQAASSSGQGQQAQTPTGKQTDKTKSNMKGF
T1 sequence (Q96SW2 whole entry): as the sequence (Q96SW2 whole entry) above
T1 sequence (Q16531 whole entry partner): as the sequence (Q16531 whole entry partner) above

## O=C1CCC(N2Cc3cc(CN4CC=C(c5c[nH]c6ncccc56)CC4)ccc3C2=S)C(=O)N1 (stereo not shown) [GT-05248, 3-(5-((4-(1H-pyrrolo[2,3-b]pyridin-3-yl)-3,6-dihydropyridin-1(2H)-yl)methyl)-1-thioxoisoindolin-2-yl)piperidine-2,6-dione]
[1]; [9]
  CK1α substrate protein remaining %: B (80%< substrate protein remaining %≤ 100%)
[2]; [9]
  IKZF 1 substrate protein remaining %: A (0% ≤ substrate protein remaining % ≤ 80%)
[3]; [9]
  IKZF2 substrate protein remaining %: A (0% ≤ substrate protein remaining % ≤ 80%)
[4]; [9]
  IKZF3 substrate protein remaining %: A (0% ≤ substrate protein remaining % ≤ 80%)
[5]; [9]
  Wee1 substrate protein remaining %: A (0% ≤ substrate protein remaining % ≤ 80%)
[6]; [9]
  GSPT1 substrate protein remaining %: A (0% ≤ substrate protein remaining % ≤ 80%)
[7]
  pIC50: > 7.00
[8]
  IC50: 50 to 100 nM

## O=C1CCC(N2Cc3cc(CN4C[C@H]5C[C@@H]4CN5c4cccc(Cl)c4Cl)ccc3C2=S)C(=O)N1 (stereo partly drawn) [GT-08477, 3-(5-(((1R,4R)-5-(2,3-dichlorophenyl)-2,5-diazabicyclo[2.2.1]heptan-2-yl)methyl)-1-thioxoisoindolin-2-yl)piperidine-2,6-dione]
[1]; [9]
  CK1α substrate protein remaining %: B (80%< substrate protein remaining %≤ 100%)
[2]; [9]
  IKZF 1 substrate protein remaining %: B (80%< substrate protein remaining %≤ 100%)
[3]; [9]
  IKZF2 substrate protein remaining %: B (80%< substrate protein remaining %≤ 100%)
[4]; [9]
  IKZF3 substrate protein remaining %: A (0% ≤ substrate protein remaining % ≤ 80%)
[5]; [9]
  Wee1 substrate protein remaining %: B (80%< substrate protein remaining %≤ 100%)
[6]; [9]
  GSPT1 substrate protein remaining %: A (0% ≤ substrate protein remaining % ≤ 80%)
[7]
  inhibition at 0.5 µM: 53 to 60%
  inhibition at 2 µM: 80 to 100%
[8]
  inhibition at 0.5 µM: 40 to 50%
[8]; MM.1S, 10 nM, 96 hours
  Inhibition Rate at 10 nM (%): la5

## O=C1CCC(N2Cc3cc(CN4CCN(c5ccccc5Cl)CC4)ccc3C2=S)C(=O)N1 (stereo not shown) [GT-08241, 3-(5-((4-(2-chlorophenyl)piperazin-1-yl)methyl)-1-thioxoisoindolin-2-yl)piperidine-2,6-dione]
[1]; [9]
  CK1α substrate protein remaining %: B (80%< substrate protein remaining %≤ 100%)
[2]; [9]
  IKZF 1 substrate protein remaining %: B (80%< substrate protein remaining %≤ 100%)
[3]; [9]
  IKZF2 substrate protein remaining %: B (80%< substrate protein remaining %≤ 100%)
[4]; [9]
  IKZF3 substrate protein remaining %: B (80%< substrate protein remaining %≤ 100%)
[5]; [9]
  Wee1 substrate protein remaining %: B (80%< substrate protein remaining %≤ 100%)
[6]; [9]
  GSPT1 substrate protein remaining %: A (0% ≤ substrate protein remaining % ≤ 80%)
[7]
  inhibition at 0.5 µM: 40 to 53%
  inhibition at 2 µM: 80 to 100%
[8]
  inhibition at 0.01 µM: 20 to 30%
  inhibition at 0.5 µM: 70 to 80%

## O=C1CCC(N2Cc3c(CN4CCN(C(c5ccccc5)c5cccnc5)CC4)cccc3C2=S)C(=O)N1 (stereo not shown) [GT-08193, 3-(4-((4-(phenyl(pyridin-3-yl)methyl)piperazin-1-yl)methyl)-1-thioxoisoindolin-2-yl)piperidine-2,6-dione]
[1]; [9]
  CK1α substrate protein remaining %: B (80%< substrate protein remaining %≤ 100%)
[2]; [9]
  IKZF 1 substrate protein remaining %: B (80%< substrate protein remaining %≤ 100%)
[3]; [9]
  IKZF2 substrate protein remaining %: A (0% ≤ substrate protein remaining % ≤ 80%)
[4]; [9]
  IKZF3 substrate protein remaining %: B (80%< substrate protein remaining %≤ 100%)
[5]; [9]
  Wee1 substrate protein remaining %: A (0% ≤ substrate protein remaining % ≤ 80%)
[6]; [9]
  GSPT1 substrate protein remaining %: A (0% ≤ substrate protein remaining % ≤ 80%)
[7]
  inhibition at 0.5 µM: 30 to 40%
  inhibition at 2 µM: 53 to 60%
[8]
  inhibition at 0.01 µM: 30 to 40%
  inhibition at 0.5 µM: 40 to 50%

## O=C1CCC(N2Cc3cc(CN4CCN(C(c5ccccc5)c5ccccn5)CC4)ccc3C2=S)C(=O)N1 (stereo not shown) [GT-05103, 3-(5-((4-(phenyl(pyridin-2-yl)methyl)piperazin-1-yl)methyl)-1-thioxoisoindolin-2-yl)piperidine-2,6-dione]
[1]; [9]
  CK1α substrate protein remaining %: B (80%< substrate protein remaining %≤ 100%)
[2]; [9]
  IKZF 1 substrate protein remaining %: B (80%< substrate protein remaining %≤ 100%)
[3]; [9]
  IKZF2 substrate protein remaining %: B (80%< substrate protein remaining %≤ 100%)
[4]; [9]
  IKZF3 substrate protein remaining %: B (80%< substrate protein remaining %≤ 100%)
[5]; [9]
  Wee1 substrate protein remaining %: B (80%< substrate protein remaining %≤ 100%)
[6]; [9]
  GSPT1 substrate protein remaining %: A (0% ≤ substrate protein remaining % ≤ 80%)
[7]
  pIC50: 6.30 to 7.00
[8]
  IC50: 10 to 50 nM

## O=C1CCC(N2Cc3c(CN4CC=C(c5ncccc5F)CC4)cccc3C2=S)C(=O)N1 (stereo not shown) [GT-08463, 3-(4-((3-fluoro-3',6'-dihydro-[2,4'-bipyridin]-1'(2'H)-yl)methyl)-1-thioxoisoindolin-2-yl)piperidine-2,6-dione]
[1]; [9]
  CK1α substrate protein remaining %: B (80%< substrate protein remaining %≤ 100%)
[2]; [9]
  IKZF 1 substrate protein remaining %: B (80%< substrate protein remaining %≤ 100%)
[3]; [9]
  IKZF2 substrate protein remaining %: B (80%< substrate protein remaining %≤ 100%)
[4]; [9]
  IKZF3 substrate protein remaining %: B (80%< substrate protein remaining %≤ 100%)
[5]; [9]
  Wee1 substrate protein remaining %: A (0% ≤ substrate protein remaining % ≤ 80%)
[6]; [9]
  GSPT1 substrate protein remaining %: A (0% ≤ substrate protein remaining % ≤ 80%)
[7]
  inhibition at 0.5 µM: 53 to 60%
  inhibition at 2 µM: 60 to 80%
[8]
  inhibition at 0.01 µM: 40 to 50%
[8]; MM.1S, 500 nM, 96 hours
  Inhibition Rate at 500 nM (%): la5

## Cc1cc2c(C3=CCN(Cc4cccc5c4CN(C4CCC(=O)NC4=O)C5=S)CC3)ncnc2s1 (stereo not shown) [GT-08947, 3-(4-((4-(6-methylthieno[2,3-d]pyrimidin-4-yl)-3,6-dihydropyridin-1(2H)-yl)methyl)-1-thioxoisoindolin-2-yl)piperidine-2,6-dione]
[1]; [10]
  CK1α substrate protein remaining %: B (80%< substrate protein remaining %≤ 100%)
[2]; [10]
  IKZF 1 substrate protein remaining %: B (80%< substrate protein remaining %≤ 100%)
[3]; [10]
  IKZF2 substrate protein remaining %: B (80%< substrate protein remaining %≤ 100%)
[4]; [10]
  IKZF3 substrate protein remaining %: B (80%< substrate protein remaining %≤ 100%)
[5]; [10]
  Wee1 substrate protein remaining %: A (0% ≤ substrate protein remaining % ≤ 80%)
[6]; [10]
  GSPT1 substrate protein remaining %: B (80%< substrate protein remaining %≤ 100%)
[7]
  inhibition at 0.5 µM: 60 to 80%
  inhibition at 2 µM: 80 to 100%
[8]
  inhibition at 0.01 µM: 30 to 40%
  inhibition at 0.5 µM: 40 to 50%

## O=C1CCC(N2Cc3cc(CN4CCC(c5ccc(Cl)cc5)CC4)ccc3C2=S)C(=O)N1 (stereo not shown) [GT-08619, 3-(5-((4-(4-chlorophenyl)piperidin-1-yl)methyl)-1-thioxoisoindolin-2-yl)piperidine-2,6-dione]
[1]; [9]
  CK1α substrate protein remaining %: B (80%< substrate protein remaining %≤ 100%)
[2]; [9]
  IKZF 1 substrate protein remaining %: B (80%< substrate protein remaining %≤ 100%)
[3]; [9]
  IKZF2 substrate protein remaining %: B (80%< substrate protein remaining %≤ 100%)
[4]; [9]
  IKZF3 substrate protein remaining %: B (80%< substrate protein remaining %≤ 100%)
[5]; [9]
  Wee1 substrate protein remaining %: B (80%< substrate protein remaining %≤ 100%)
[6]; [9]
  GSPT1 substrate protein remaining %: A (0% ≤ substrate protein remaining % ≤ 80%)
[7]
  inhibition at 0.5 µM: 40 to 53%
  inhibition at 2 µM: 80 to 100%
[8]
  inhibition at 0.01 µM: 20 to 30%
  inhibition at 0.5 µM: 40 to 50%
